# Several values for one entry are separate records, joined by “and”; a condition that tells them apart may be missing. Identical values can stand only once.
# How the values were obtained:
# [1] = test system: GL261 murine brain tumor cells; experiment: GL261 growth curve, cell volumes/areas and colony forming efficiency; format: cell-based
# Description: 1×10^5 cells per 25 cm^2 flask at time zero (density 40 cells/mm^2). Three flasks were utilized at each time period. The medium in the flasks was not changed over the duration of the growth curve (unfed cultures). Data were taken daily from day zero to day 11.5 post-seeding and cell numbers, age distributions, and apoptotic percentages were determined. After growth curve shapes (without and with 2 μM tetrac) were determined, irradiation times at 70 and 270 hour post-seeding were chosen.
# To obtain exponential and plateau phase cell numbers, we trypsinized ([…] trypsin-EDTA) cells for 5 min at 37° C.
# For determination of CCDTs, the cell numbers per flask were determined on a daily basis. A four-day interval in the exponential region of growth to obtain the CCDTs, yielding a total of 12 estimations for analysis was utilized. A regression analysis was performed using the (log) of the cell number versus the linear time in days (SigmaPlot, V. 10, Systat Software, Inc., Point Richmond, Calif.). The log slope value and its standard error (SE) were determined, and the SE was converted to the 95% confidence limits using a two-tailed t-table at N−1 degrees of freedom where N is the number of samples. (See Goldstein, A. In: Biostatistics, New York, The MacMillan Co., 1964, p. 140-146).
# [2] = test system: GL261 murine brain tumor cells; experiment: GL261 single dose 250 kVp x-ray survival (SHMT and LQ analysis); format: cell-based
# Description: To irradiate 25 cm^2 flasks, an x-ray machine was used and (Philips 250 kVp Therapeutic X-ray Machine, Einhoven, […]) operated at 250 kVp and 15 mA with added filtration of 0.4 mm Thoreaus filter. The target to source distance was approximately 30 cm. Dose rates were measured using an R-meter (Victoreen R-meter, Cleveland, Ohio), and converted to absorbed (Gy) doses using appropriate temperature, pressure, and R to Gy conversion factors. The dose rate was 1 Gy per min. Flasks were irradiated at ambient temperature.
# For […] analyses, survival data lying at or below 36.8% survival were analyzed by using the log fractional survival (log FxS) versus dose (D). Data were fit using linear regression analysis (SigmaPlot, V. 10, Systat Corp., Point Richmond, Calif.) to obtain the Y-intercept (or n, the extrapolation number) and the slope (1/D0), and their 95% confidence limits. (See Goldstein, A. In: Biostatistics, New York, The MacMillan Co., 1964, p. 140-146). The D0 value (Gy) is defined as the inverse of the slope, and the corrected Dq value (Gy) was then defined using the relationship: Dq(Gy)=ln n×D0(Gy) The 95% confidence limits on Dq were defined using error propagation. (See Chase, et al., In: Principles of Radioisotope Methodology. Minneapolis, Minn. Burgess Publ. Co., 1962, p. 68, 87-90). Statistics: LQ Analysis
# For LQ analyses, data lying between a fractional survival of 1.00 and 0.05 were used. The fractional survival data at each dose were transformed using the relationship (−ln F×S/D) and plotted against dose (D). A regression analysis was performed to yield the LQ equation along with their 95% confidence limit values using a t-table with the appropriate (N−1) degrees of freedom. (See Goldstein, A. In: Biostatistics, New York, The MacMillan Co., 1964, p. 140-146).
# To determine the tetrac modification factor (TMF), the survival at 2 Gy obtained for control cells was divided by the survival at 2 Gy for tetrac treated cells. The 95% confidence limits on the ratio were determined using error propagation techniques. (See Chase, et al. In: Princiiples of Radioisotope Methodology, Minneapolis, Minn., Burgress Publ. Co., 1962, p. 68, 87-90).
# [3] = test system: GL261 murine brain tumor cells; experiment: GL261 sublethal damage repair (SLDR), split dose; format: cell-based
# Description: SLDR was measured at 10% immediate survival level as determined from the acute single dose curve for both control and Tetrac-treated cells in both growth states (i.e. exponentially growing and plateau phase cells. Flasks were irradiated with one-half of the total dose and returned to the 37° C. incubator. At increasing periods of time, flasks were removed, and given the second half of the immediate 10% survival dose. Survival was measured at 0, 0.5, 1.0, 1.5, 2.0, 3.0, 4.0, 6.0, 8.0, and 10.0 hours after the initial dose.
# To investigate the effects of tetrac on SLDR and PLDR, cells were chosen that had been given a one-hour treatment with tetrac at two different times, i.e., at 70 and 270 hours post-seeding).
# GL261 cells = experiment: Cell multiplicity (CM) factor after one hour Tetrac exposure; format: cell-based, murine; conditions: after one hour exposure to Tetrac
# Description: Cell multiplicity (CM) was determined from Giemsa stained slides by counting the number of cells per microcolony under 20× magnification. At least 400 microcolonies were counted.
# The length of time that Tetrac biologically affected GL261 cells was also determined. To do this, the multiplicity relationship defined above was utilized. Tetrac was added to cells one hour prior to the determination of the multiplicity. After the exposure of exponentially growing GL261 cells to Tetrac, the Tetrac containing medium was removed from GL261 cells, which contained an unknown residual and fresh medium (without Tetrac) was added. As a function of time (i.e., 0, 1, 2, 3, 4, 6, 8, and 10 hours, and 1-6 days), the cells, containing an unknown residual amount of remaining Tetrac, were then processed for determination of the multiplicity index (i.e. the number of cells per microcolony).
# [4] = test system: human medullary carcinoma of the thyroid (MTC) xenografts; conditions: mouse, in vivo
# Description: Human medullary carcinoma cells (TT, Catalog No. CRL-1803) were purchased from American Type Culture Collection (Manassas, Va.) and cultured as instructed by the supplier, using a complete growth medium consisting of F-12K medium with 10% FBS. Cells were cultured in 5% CO2/air atmosphere at 37 C to sub-confluence and then treated with 0.25% (w/v) trypsin/EDTA to affect cell release from the culture vessel. After washing with culture medium, the cells were suspended in DMEM (free of phenol red and FBS) and counted. • Tetrac versus tetrac NP distribution in h-MTC. […] Female NCr nude homozygous mice aged 5-6 weeks and body weights of 20 g were purchased form Taconic Farms (Hudson N.Y.). Animals were maintained under specific pathogen-free conditions and housed 4 animals per cage, under controlled conditions of temperature (20-24° C.) and humidity (60-70%) and a 12 h light/dark cycle. Water and food were provided ad libitum.
# [5] = Exponential phase (with Tetrac)
# [6] = Unfed plateau Phase (with Tetrac)
structure (smiles),measurement,setting,value
"O=C(O)Cc1cc(I)c(Oc2cc(I)c(O)c(I)c2)c(I)c1 [Tetrac, tetraiodothyroacetic acid]",decrease of final saturation density,[1]; 2 μM Tetrac,about 50%
same,saturation density of control relative to tetrac-treated cells,[1]; 2 μM Tetrac,approximately 2.4 times
same,"cell culture doubling time, Tetrac-treated GL261 cells","[1]; 2 μM Tetrac, exponential growth",43.8 ± 3.8 h and 43.8 h
same,onset of exponential growth,"[1]; 2 μM Tetrac, control 20 hours",about 40 hours
same,Mean nuclear area (μm^2),[1]; Exponential Cells (+Tetrac),1180 μm^2
same,Median Volume (μm^3),[1]; Exponential Cells (+Tetrac),3850 μm^3
same,Median cell area (μm^2),[1]; Exponential Cells (+Tetrac),2814 μm^2
same,nuclear/cell area (%),[1]; Exponential Cells (+Tetrac),42%
same,Mean nuclear area (μm^2),[1]; Plateau phase Cells (+Tetrac),310 μm^2
same,Median Volume (μm^3),[1]; Plateau phase Cells (+Tetrac),2780 μm^3
same,Median cell area (μm^2),[1]; Plateau phase Cells (+Tetrac),700 μm^2
same,nuclear/cell area (%),[1]; Plateau phase Cells (+Tetrac),44%
same,CFE (%),"[1]; Plateau phase Cells (+Tetrac), with feeder cells",8.8%
same,cell size relative to control GL261 cells,[1]; exponential phase,1.4 times
same,cell size relative to control GL261 cells,[1]; plateau phase,1.9 times
same,SF2 (survival at 2 Gy),"[2]; Exponential Phase (with Tetrac), 95% confidence limits in parentheses",14.2 (10.8-18.8) %
same,SHMT n,"[2]; Exponential phase (with Tetrac 2 μM, 1 h)",1.06
same,LQ α (Gy^−1),[2]; [5],0.930 Gy^−1
same,LQ β (Gy^−2),[2]; [5],0.003 Gy^−2
same,SHMT D0 (Gy),[2]; [5],1.08 Gy and 1.08 (0.09). Gy
same,sensitization of hypoxic or oxic cells,[2]; Tetrac 2 μM,sensitize both oxic and hypoxic cells equally
same,LQ α (Gy^−1),[2]; [6],1.157 Gy^−1
same,LQ β (Gy^−2),[2]; [6],0.066 Gy^−2
same,SF2 (survival at 2 Gy),[2]; [6],7.6%
same,SHMT D0 (Gy),[2]; [6],0.75 Gy
same,SHMT Dq (Gy),[2]; [6],0.00 Gy
same,SHMT n,[2]; [6],1.04
same,increase of D0,[2]; exponentially growing cells,15%
same,reduction of Dq,[2]; exponentially growing cells,100%
same,reduction of extrapolation number n,[2]; exponentially growing cells,93%
same,survival of Tetrac treated cells at 2 Gy,[2]; non-Tetrac treated cells 32% (FIG. 57),13%
same,reduction of D0,[2]; plateau phase cells,6%
same,reduction of Dq,[2]; plateau phase cells,100%
same,cellular repair of x-ray damage (FIG. 58),"[3]; Tetrac 2 uM, 6 to 8 hours post-irradiation",no repair of x-ray damage
same,SLDR recovery ratio,"[3]; exponential Tetrac-treated cells, 2 hours after the first dose",1.8
same,factor of reduction of SLDR,[3]; exponential cells,1.8
same,factor of decrease in cellular repair,"[3]; plateau phase cells, three hours post-irradiation",~3
same,survival relative to survival at 0 hours,"[3]; plateau phase, 3 hours after the initial dose",approximately 36%
same,time at which 50% decrease in the CM factor was recorded,GL261 cells,60 h
same,mortality,[4],no mortality
